Results as given in ChEMBL document CHEMBL1201862, “PubChem BioAssay data set” (2004).
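Grown in 96-well plates, cells were treated for 48 hours with each compound at five concentrations. Insufficient inhibition: endpoint recorded as highest concentration tested. GI50 marks 50% less growth.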 Active and inactive are the calls of the source. Rule as the data show it: active = GI50 up to about 1.1 µM and inactive = higher.

Legend:
Experiment in all cases: DTP human tumour cell line panel, 48 h
[1] = tested on: HT-29
[2] = tested on: SF-539
[3] = tested on: M14
[4] = tested on: Malme-3M
[5] = tested on: HOP-62
[6] = tested on: A549
[7] = tested on: U-251
[8] = tested on: KM12
[9] = tested on: SNB-75
[10] = tested on: RPMI-8226
[11] = tested on: SK-OV-3
[12] = tested on: SK-MEL-5
[13] = tested on: TK-10
[14] = tested on: RXF 393
[15] = tested on: IGROV-1
[16] = tested on: OVCAR-8
[17] = tested on: HCT-15
[18] = tested on: SR

| Structure (SMILES) | GI50 [1] | GI50 [2] | GI50 [3] | GI50 [4] | GI50 [5] | GI50 [6] | GI50 [7] | GI50 [8] | GI50 [9] | GI50 [10] | GI50 [11] | GI50 [12] | GI50 [13] | GI50 [14] | GI50 [15] | GI50 [16] | GI50 [17] | GI50 [18] |
| --- | --- | --- | --- | --- | --- | --- | --- | --- | --- | --- | --- | --- | --- | --- | --- | --- | --- | --- |
| CC1=C(C(=O)Nc2cc(=O)n(C)c(=O)n2C)C(c2cccc([N+](=O)[O-])c2)C(C(=O)Nc2cc(=O)n(C)c(=O)n2C)=C(C)N1 | > 100 µM (inactive) | 26.7 µM (inactive) | > 100 µM (inactive) | > 100 µM (inactive) | > 100 µM (inactive) | > 100 µM (inactive) | > 100 µM (inactive) | > 100 µM (inactive) | 17.5 µM (inactive) | 62.5 µM (inactive) | > 100 µM (inactive) | 74.6 µM (inactive) | > 100 µM (inactive) | > 100 µM (inactive) | > 100 µM (inactive) | > 100 µM (inactive) | – | – |
| COc1ccc([N+]2=NC(c3ccc([N+](=O)[O-])cc3)=NN(c3ccccc3)C2)cc1.[O-][Cl+3]([O-])([O-])[O-] | 62.7 µM (inactive) | – | – | > 100 µM (inactive) | > 100 µM (inactive) | > 100 µM (inactive) | 36.1 µM (inactive) | 90.2 µM (inactive) | – | 33 µM (inactive) | – | 28.4 µM (inactive) | > 100 µM (inactive) | 67.9 µM (inactive) | 33.2 µM (inactive) | > 100 µM (inactive) | 41.9 µM | 44.2 µM (inactive) |
| O=C1N[C@H](Cc2c[nH]cn2)C(=O)N2CCC[C@@H]12 | – | – | > 100 µM (inactive) | > 100 µM (inactive) | > 100 µM (inactive) | > 100 µM (inactive) | – | > 100 µM (inactive) | 65.8 µM (inactive) | > 100 µM (inactive) | > 100 µM (inactive) | > 100 µM (inactive) | > 100 µM (inactive) | > 100 µM (inactive) | > 100 µM (inactive) | > 100 µM (inactive) | > 100 µM | – |
| Cc1cc(Cl)cc2c1NC(=O)C2(O)CC(=O)c1ccc(Br)cc1 (centres undefined) | 49.9 µM (inactive) | 48.3 µM (inactive) | 52 µM (inactive) | > 100 µM (inactive) | > 100 µM (inactive) | > 100 µM (inactive) | 79.4 µM (inactive) | 46.9 µM (inactive) | 45.5 µM (inactive) | 35 µM (inactive) | > 100 µM (inactive) | 25 µM (inactive) | > 73.8 µM (inactive) | 21.8 µM (inactive) | 66.8 µM (inactive) | 38.2 µM (inactive) | 57 µM | – |
| CCOC(=O)c1c[nH]c2c(ccc3nn(C)nc32)c1=O | > 100 µM (inactive) | – | > 100 µM (inactive) | > 100 µM (inactive) | > 100 µM (inactive) | 34 µM (inactive) | 25.8 µM (inactive) | > 100 µM (inactive) | > 100 µM (inactive) | 25.6 µM (inactive) | > 100 µM (inactive) | > 100 µM (inactive) | > 100 µM (inactive) | 30.4 µM (inactive) | > 100 µM (inactive) | > 100 µM (inactive) | 41 µM | 84.1 µM (inactive) |
| Cc1c(Cl)c2ccccc2n1S(=O)(=O)c1ccccc1 | 46 µM (inactive) | 54.1 µM (inactive) | 37.8 µM (inactive) | > 100 µM (inactive) | 65.5 µM (inactive) | 41.3 µM (inactive) | 88.9 µM (inactive) | 37.9 µM (inactive) | 19.9 µM (inactive) | 27.8 µM (inactive) | – | 32.4 µM (inactive) | 65.9 µM (inactive) | – | > 100 µM (inactive) | 52.6 µM (inactive) | 37.3 µM | 32.1 µM (inactive) |
| C/C(CC(=O)Nc1ccccc1C)=N/NS(=O)(=O)c1ccc(C)cc1 | > 100 µM (inactive) | > 100 µM (inactive) | > 100 µM (inactive) | > 100 µM (inactive) | > 100 µM (inactive) | > 100 µM (inactive) | > 100 µM (inactive) | > 100 µM (inactive) | > 100 µM (inactive) | > 100 µM (inactive) | > 100 µM (inactive) | > 100 µM (inactive) | > 100 µM (inactive) | > 100 µM (inactive) | > 100 µM (inactive) | > 100 µM (inactive) | – | – |
| CC(C(=O)c1ccc(Cl)cc1)C1OC(=O)C(Cl)=C1Cl (centres undefined) | 31.6 µM (inactive) | 27.6 µM (inactive) | 34.1 µM (inactive) | 21.4 µM (inactive) | > 100 µM (inactive) | > 100 µM (inactive) | > 100 µM (inactive) | 33.9 µM (inactive) | 22.1 µM (inactive) | 26.9 µM (inactive) | > 100 µM (inactive) | 37.9 µM (inactive) | 37.2 µM (inactive) | 19.7 µM (inactive) | 29.3 µM (inactive) | 32.5 µM (inactive) | 21.5 µM | – |
| CCCC(C)C[C@@H](C)CC(C)/C=C(\C)c1oc(=O)c(C)c(O)c1C.CC[C@@H](C)C[C@@H](C)C[C@@H](C)/C=C(\C)c1oc(=O)c(C)c(O)c1C (some centres undefined) | 13.9 µM (inactive) | 15.4 µM (inactive) | 15.5 µM (inactive) | 3.56 µM (inactive) | 18.7 µM (inactive) | 17.3 µM (inactive) | 14.5 µM (inactive) | 20.4 µM (inactive) | 13.6 µM (inactive) | – | – | – | 19.5 µM (inactive) | 13.4 µM (inactive) | – | 20.3 µM (inactive) | – | – |
